Results taken from paper PMC6102643, “Different Benzodiazepines Bind with Distinct Binding Modes to GABAA Receptors” (ACS Chemical Biology, 2018).

How the values were obtained:
[1] = tested on: α1-, α3-, and α5-containing GABAA receptors; set-up: method as in PMID 20727364; conditions: versus SH-053-2′F-S-CH3; cited from earlier work
[2] = tested on: α2-containing GABAA receptors; set-up: method as in PMID 20727364; conditions: versus SH-053-2′F-S-CH3; cited from earlier work
[3] = tested on: GABAA receptors; set-up: method as in PMID 17392731, PMID 20727364; conditions: cited from earlier work
[4] = target: T1, recombinant rat GABAA receptor α5β3γ2 (Rattus norvegicus, UniProt P18508+P19969); test: [3H]flunitrazepam radioligand displacement, α5β3γ2; type: binding; conditions: for preference / selectivity for α5-containing receptors: binding affinity at α5 versus other receptor subtypes
T1 construct: expressed in transfected cells; host or cells: HEK-293
T1 sequence (P19969 32-464 limits assumed): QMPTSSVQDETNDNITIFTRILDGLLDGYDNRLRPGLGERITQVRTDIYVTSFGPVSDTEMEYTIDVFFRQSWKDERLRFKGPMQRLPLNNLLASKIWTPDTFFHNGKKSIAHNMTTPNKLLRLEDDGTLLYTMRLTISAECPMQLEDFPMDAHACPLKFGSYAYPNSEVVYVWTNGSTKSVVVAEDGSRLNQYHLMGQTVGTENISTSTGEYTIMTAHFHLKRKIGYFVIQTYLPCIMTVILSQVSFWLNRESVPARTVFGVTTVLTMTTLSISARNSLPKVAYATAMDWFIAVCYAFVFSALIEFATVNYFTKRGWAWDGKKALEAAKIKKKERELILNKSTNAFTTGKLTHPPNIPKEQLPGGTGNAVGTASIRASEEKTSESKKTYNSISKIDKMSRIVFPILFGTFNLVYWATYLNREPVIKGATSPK
T1 sequence (P63079 26-473 partner): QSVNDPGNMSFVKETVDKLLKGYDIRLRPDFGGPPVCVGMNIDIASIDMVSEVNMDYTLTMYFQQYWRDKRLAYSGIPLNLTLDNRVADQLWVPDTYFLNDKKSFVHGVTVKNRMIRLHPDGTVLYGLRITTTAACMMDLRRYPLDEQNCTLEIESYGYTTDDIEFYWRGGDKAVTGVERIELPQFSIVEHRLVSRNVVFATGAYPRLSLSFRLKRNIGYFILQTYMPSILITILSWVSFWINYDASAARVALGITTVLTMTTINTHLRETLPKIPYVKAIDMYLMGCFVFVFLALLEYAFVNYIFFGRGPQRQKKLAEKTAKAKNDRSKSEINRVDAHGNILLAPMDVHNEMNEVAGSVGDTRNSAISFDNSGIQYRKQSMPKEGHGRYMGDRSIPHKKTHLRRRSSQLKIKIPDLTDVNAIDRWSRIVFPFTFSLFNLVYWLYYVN
T1 sequence (P18508 39-466): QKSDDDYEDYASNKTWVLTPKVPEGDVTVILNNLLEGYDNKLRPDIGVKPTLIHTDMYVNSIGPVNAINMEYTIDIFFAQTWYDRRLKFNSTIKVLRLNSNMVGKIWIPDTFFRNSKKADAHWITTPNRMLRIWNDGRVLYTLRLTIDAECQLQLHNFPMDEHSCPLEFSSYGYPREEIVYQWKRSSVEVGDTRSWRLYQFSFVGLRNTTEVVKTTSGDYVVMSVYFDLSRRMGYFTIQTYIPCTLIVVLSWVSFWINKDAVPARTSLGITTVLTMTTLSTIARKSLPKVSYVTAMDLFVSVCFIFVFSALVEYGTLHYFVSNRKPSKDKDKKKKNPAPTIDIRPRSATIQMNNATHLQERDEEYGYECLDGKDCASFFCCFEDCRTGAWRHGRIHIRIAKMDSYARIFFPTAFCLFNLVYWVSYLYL
Description: (§1) To exclude a binding behavior unique to α2-containing receptors, we also performed similar radioligand displacement studies on other receptor combinations such as recombinantly expressed rat GABAA receptor subtypes α1β3γ2, α3β3γ2, and α5β3γ2 (see Figure S2).
(§2) Radioligand displacement assays were performed in HEK-293 cells transfected with recombinant rat αxβ3γ2 receptors (x = 1, 2, 3, or 5) using 2 nM [^3H]flunitrazepam and 1 nM to 10 μM investigated compound as described previously.[20] Two-electrode voltage clamp recordings were performed on X. laevis oocytes treated with mRNA for the desired subunit combination at a GABA concentration eliciting 3% of the maximum current.[21]
(§3) Inhibition of [3H]flunitrazepam binding to recombinant α1β3γ2, α2β3γ2, α3β3γ2, α5β3γ2 GABA A
(§4) receptors subtypes. Membranes from HEK 293 cells transfected with GABAA receptor
(§5) subunit combination, (α1β3γ2, α2β3γ2, α3β3γ2, α5β3γ2) were incubated with 2 nM
(§6) [3H]flunitrazepam in the presence of various concentrations of GABAA -R ligands investigated.
(§7) Data shown represent mean ± SEM of three experiments performed in duplicates each. […]

[5] = target: T2, α2β3γ2-GABAA receptors (Rattus norvegicus, UniProt P18508+P23576); test: Two-electrode voltage clamp recordings, α2β3γ2 in Xenopus laevis oocytes; type: cell-based; conditions: GABA eliciting 3% of maximum current; for activity in the oocyte assay at drug concentrations of ≤1 μM: drug ≤1 μM
T2 construct: expressed in transfected cells; host or cells: Xenopus laevis oocytes (mRNA injected)
T2 sequence (P23576 29-451): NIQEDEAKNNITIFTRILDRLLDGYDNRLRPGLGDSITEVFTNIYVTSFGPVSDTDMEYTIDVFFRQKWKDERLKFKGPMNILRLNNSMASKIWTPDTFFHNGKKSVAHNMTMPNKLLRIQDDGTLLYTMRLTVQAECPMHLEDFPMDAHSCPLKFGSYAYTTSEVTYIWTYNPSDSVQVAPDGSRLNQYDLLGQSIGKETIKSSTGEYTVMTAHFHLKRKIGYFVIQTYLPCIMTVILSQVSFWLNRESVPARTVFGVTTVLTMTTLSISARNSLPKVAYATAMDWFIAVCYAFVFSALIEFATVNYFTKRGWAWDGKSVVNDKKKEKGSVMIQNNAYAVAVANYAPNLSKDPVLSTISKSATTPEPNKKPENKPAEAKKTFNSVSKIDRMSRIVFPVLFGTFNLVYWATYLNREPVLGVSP
T2 sequence (P63079 26-473 partner): as the sequence (P63079 26-473 partner) above
T2 sequence (P18508 39-466): as the sequence (P18508 39-466) above
Description: Radioligand displacement assays provide information about the binding of a compound to only a specific binding site. To exclude the possibility that compounds 2-R and 3-R bind at a site different from the [^3H]flunitrazepam binding site (and are therefore unable to compete with the radioligand), we decided to determine the efficacies of all our test compounds using two-electrode voltage clamp recordings on α2β3γ2-mRNA-treated Xenopus laevis oocytes (see Figure 5).
Figure 5 Concentration–response curves of drug-induced enhancement of GABA currents. X. laevis oocytes were treated with mRNA for α2β3γ2-GABAA receptors and studied using two-electrode voltage clamp recordings. GABA-induced currents (3% of maximum) were modulated by addition of drug. Data are means ± the standard error of the mean of three independent experiments.
as §2

[6] = tested on: α1β3γ2, α3β3γ2, and α5β3γ2 GABAA receptors; test: Two-electrode voltage clamp recordings, other receptor combinations in oocytes; type: cell-based; conditions: α1β3γ2, α3β3γ2, α5β3γ2 (and α2β3γ2); Figure S3
Description: In addition to the analysis of α2β3γ2-containing GABAA receptors, we also performed similar electrophysiological studies of other receptor combinations such as α1β3γ2, α3β3γ2, and α5β3γ2 (see Figure S3).
as §2

[7] = tested on: recombinant rat αxβ3γ2 receptors (x = 1, 2, 3, or 5); test: [3H]flunitrazepam radioligand displacement, all receptor subtypes tested; type: binding; conditions: for displacement of [3H]flunitrazepam in all receptor subtypes (in words): α1β3γ2, α2β3γ2, α3β3γ2, α5β3γ2, even at high micromolar concentrations for non-binders; for subtype selectivity of binding (in words): across α1, α2, α3, α5 subtypes
Description: as §1
However, we did observe differences in the potency rank order.
as §2

[8] = target: T3, recombinant rat GABAA receptor α2β3γ2 (Rattus norvegicus, UniProt P18508+P23576); test: [3H]flunitrazepam radioligand displacement, α2β3γ2; type: binding; conditions: for displacement of [3H]flunitrazepam at α2β3γ2 (in words): 2 nM [3H]flunitrazepam, HEK-293 membranes
T3 construct: expressed in transfected cells; host or cells: HEK-293
T3 sequence (P23576 29-451): as the sequence (P23576 29-451) above
T3 sequence (P63079 26-473 partner): as the sequence (P63079 26-473 partner) above
T3 sequence (P18508 39-466): as the sequence (P18508 39-466) above
Description: To test our predictions, we performed radioligand displacement studies and compared the potencies of our six chiral benzodiazepine ligands for the inhibition of binding of [^3H]flunitrazepam to α2β3γ2 recombinant rat GABAA receptor subtypes (see Figure 4).
Figure 4 Inhibition of binding of [^3H]flunitrazepam to recombinant α2β3γ2 GABAA receptor subtypes. Membranes from HEK-293 cells transfected with the GABAA receptor subunit combination α2β3γ2 were incubated with 2 nM [^3H]flunitrazepam in the presence of various concentrations of the six BZ site ligands. Data shown are the means ± the standard error of the mean of three independent experiments each performed in duplicate.
as §2, §3, §4, §5, §6, §7

[9] = target: T4, recombinant rat GABAA receptor α1β3γ2 (Rattus norvegicus, UniProt P18508+P62813); test: [3H]flunitrazepam radioligand displacement, α1β3γ2; type: binding
T4 construct: expressed in transfected cells; host or cells: HEK-293
T4 sequence (P62813 28-455): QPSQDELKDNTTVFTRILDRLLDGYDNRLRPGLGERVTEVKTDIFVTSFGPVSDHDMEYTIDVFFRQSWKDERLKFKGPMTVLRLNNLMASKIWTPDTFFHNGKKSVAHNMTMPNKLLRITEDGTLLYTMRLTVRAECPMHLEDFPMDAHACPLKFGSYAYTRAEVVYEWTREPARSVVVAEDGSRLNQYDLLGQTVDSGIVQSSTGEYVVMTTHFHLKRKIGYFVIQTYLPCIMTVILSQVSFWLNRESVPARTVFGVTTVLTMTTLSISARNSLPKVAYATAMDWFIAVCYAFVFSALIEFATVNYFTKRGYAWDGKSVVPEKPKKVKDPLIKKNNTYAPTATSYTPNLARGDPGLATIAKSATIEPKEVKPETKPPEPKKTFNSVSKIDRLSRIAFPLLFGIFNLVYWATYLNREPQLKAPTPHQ
T4 sequence (P63079 26-473 partner): as the sequence (P63079 26-473 partner) above
T4 sequence (P18508 39-466): as the sequence (P18508 39-466) above
Description: as §1, §2, §3, §4, §5, §6, §7

[10] = target: T5, recombinant rat GABAA receptor α3β3γ2 (Rattus norvegicus, UniProt P18508+P20236); test: [3H]flunitrazepam radioligand displacement, α3β3γ2; type: binding
T5 construct: expressed in transfected cells; host or cells: HEK-293
T5 sequence (P20236 29-493): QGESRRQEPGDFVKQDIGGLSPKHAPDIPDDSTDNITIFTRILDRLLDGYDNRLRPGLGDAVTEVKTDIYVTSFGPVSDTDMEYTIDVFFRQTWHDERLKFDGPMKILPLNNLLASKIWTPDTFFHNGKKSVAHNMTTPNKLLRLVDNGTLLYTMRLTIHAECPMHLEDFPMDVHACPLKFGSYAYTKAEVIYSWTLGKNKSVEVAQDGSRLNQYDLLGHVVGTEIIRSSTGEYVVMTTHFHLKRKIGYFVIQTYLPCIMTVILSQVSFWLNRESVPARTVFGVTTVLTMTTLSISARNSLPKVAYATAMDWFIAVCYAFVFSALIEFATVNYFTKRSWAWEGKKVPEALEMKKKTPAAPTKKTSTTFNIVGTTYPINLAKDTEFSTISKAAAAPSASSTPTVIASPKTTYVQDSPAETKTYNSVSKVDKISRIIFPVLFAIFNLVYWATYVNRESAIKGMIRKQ
T5 sequence (P63079 26-473 partner): as the sequence (P63079 26-473 partner) above
T5 sequence (P18508 39-466): as the sequence (P18508 39-466) above
Description: as §1, §2, §3, §4, §5, §6, §7

| Structure (SMILES) | lower affinity compared to the S isomer, α1-, α3-, and α5-containing receptors [1] | lower affinity compared to the S isomer, α2-containing receptors [2] [fold] | binding to GABAA receptors (in words) [3] | Ki [4] [nM] | preference / selectivity for α5-containing receptors [4] [fold] | modulation of GABA-induced chloride ion flux (in words) [5] | modulation of GABA currents in all receptor subtypes (in words) [6] | displacement of [3H]flunitrazepam in all receptor subtypes (in words) [7] | Ki [8] [nM] | displacement of [3H]flunitrazepam at α2β3γ2 (in words) [8] | Ki [9] [nM] | Ki [10] [nM] | modulation of GABA-induced currents at 10 μM ([5]; drug 10 μM) | activity in the oocyte assay at drug concentrations of ≤1 μM [5] | subtype selectivity of binding (in words) [7] |
| --- | --- | --- | --- | --- | --- | --- | --- | --- | --- | --- | --- | --- | --- | --- | --- |
| C#Cc1ccc2c(c1)C(c1ccccc1F)=N[C@H](C)c1c(C(=O)OCC)ncn1-2 [SH-053-2′F-R-CH3] | 3–5 fold | 30 | high affinity | – | – | – | – | – | – | – | – | – | – | – | – |
| C#Cc1ccc2c(c1)C(c1ccccc1F)=N[C@@H](C)c1c(C(=O)OCC)ncn1-2 [SH-053-2′F-S-CH3] | – | – | high affinity | – | – | – | – | – | – | – | – | – | – | – | – |
| CCOC(=O)c1ncn2c1[C@@H](C)N=C(c1ccccc1F)c1cc(Br)ccc1-2 [compound 1-R] | – | – | – | 56 ± 8 | ~5 | positive allosteric modulators | positive modulation | potently replaced | 253 ± 31 | retained its potential to displace the radioligand | 273 ± 41 | 501 ± 79 | – | – | – |
| CCOC(=O)c1ncn2c1[C@H](C)N=C(c1ccccc1F)c1cc(Br)ccc1-2 [compound 1-S] | – | – | – | 17 ± 5 | > 4 | positive allosteric modulators | positive modulation | potently replaced | 67 ± 9 | intermediate to high binding affinities | 190 ± 55 | 136 ± 24 | – | – | – |
| C#Cc1ccc2c(c1)C(c1ccccc1)=N[C@H](C)c1nnc(C)n1-2 [compound 2-R] | – | – | – | > 10000 | – | – | mainly modulatory silent | failed to displace | > 10000 | inactive | > 10000 | > 10000 | slight positive modulation | complete loss of activity | – |
| C#Cc1ccc2c(c1)C(c1ccccc1)=N[C@@H](C)c1nnc(C)n1-2 [compound 2-S] | – | – | – | 80 ± 4 | – | positive allosteric modulators | positive modulation | potently replaced | 164 ± 15 | intermediate to high binding affinities | 663 ± 21 | 656 ± 110 | – | – | significant higher binding affinities in α2 and α5 GABAAR subtypes than in α1 and α3 subtypes |
| C[C@H]1N=C(c2ccccc2)c2cc(Br)ccc2NC1=O [compound 3-R] | – | – | – | > 10000 | – | – | mainly modulatory silent | failed to displace | > 10000 | inactive | > 10000 | > 10000 | – | complete loss of activity | – |
| C[C@@H]1N=C(c2ccccc2)c2cc(Br)ccc2NC1=O [compound 3-S] | – | – | – | 31 ± 5 | – | positive allosteric modulators | positive modulation | potently replaced | 61 ± 10 | intermediate to high binding affinities | 64 ± 2 | 102 ± 7 | – | – | low subtype selectivity |
